Patent US6525001B1, “Substituted pyrimidine and pyridine herbicides” (Mid-American Commercialization Corporation, priority 1997, dated 2003)

Assays:
Format in all cases: in vivo
Design in all cases: key: 0 is no effect; 10 is complete control
[1] = system: duck salad (Heteranthera limosa); assay: Test B flood test
Summary of the method: (§1)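 Each value is a visual injury score relative to controls, with 10 meaning complete control and 0 no effect. Evaluation took place twelve to sixteen days after the 2-leaf-stage plants were treated and kept in the greenhouse.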

[2] = system: bamyardgrass (Echinochloa crus-galli); assay: Test B flood test
Summary of the method: as §1

[3] = system: smallflower flatsedge (Cyperus difformis); assay: Test B flood test
Summary of the method: as §1

[4] = system: rice (Oryza sativa); assay: Test B flood test
Summary of the method: as §1

[5] = system: broadleaf signalgrass (Brachiaria decumbens); assay: Test B pre-/postemergence; conditions: for B. signalgrass plant response rating: Preemergence
Summary of the method: (§2)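 Response scores run from 0, meaning no effect, to 10, meaning complete control, assigned by eye relative to controls twelve to sixteen days after spraying. Treatment was both preemergence on planted seed and postemergence on plants at the 1- to 4-leaf stage.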

[6] = system: soybean (Glycine max); assay: Test B pre-/postemergence
Summary of the method: as §2

[7] = system: wild oat (Avena fatua); assay: Test B pre-/postemergence
Summary of the method: as §2

[8] = system: purple nutsedge (Cyperus rotundus); assay: Test B pre-/postemergence
Summary of the method: as §2

[9] = system: giant foxtail (Setaria faberii); assay: Test B pre-/postemergence
Summary of the method: as §2

[10] = system: momingglory (Ipomoea hederacea); assay: Test B pre-/postemergence
Summary of the method: as §2

[11] = system: pigweed (Amaranthus retroflexus); assay: Test B pre-/postemergence
Summary of the method: as §2

[12] = system: blackgrass (Alopecurus myosuroides); assay: Test B pre-/postemergence; conditions: for Blackgrass plant response rating: Preemergence
Summary of the method: as §2

[13] = system: sugar beet (Beta vulgaris); assay: Test B pre-/postemergence
Summary of the method: as §2

[14] = system: crabgrass (Digitaria sanguinalis); assay: Test B pre-/postemergence; conditions: for Crabgrass plant response rating: Preemergence
Summary of the method: as §2

[15] = system: rape (Brassica napus); assay: Test B pre-/postemergence
Summary of the method: as §2

[16] = system: cocklebur (Xanthium strumarium); assay: Test B pre-/postemergence; conditions: for Cocklebur plant response rating: Preemergence
Summary of the method: as §2

[17] = system: corn (Zea mays); assay: Test B pre-/postemergence; conditions: for Corn plant response rating: Preemergence
Summary of the method: as §2

[18] = system: bedstraw (Galium aparine); assay: Test B pre-/postemergence; conditions: for Bedstraw plant response rating: Preemergence
Summary of the method: as §2

[19] = system: wheat (Triticum aestivum); assay: Test B pre-/postemergence
Summary of the method: as §2

[20] = system: velvetleaf (Abutilon theophrasti); assay: Test B pre-/postemergence
Summary of the method: as §2

[21] = Rate 62 g/ha, Postemergence (flood test)
[22] = Rate 125 g/ha, Postemergence, flood test
[23] = Rate 250 g/ha, Postemergence (flood test species)
[24] = Rate 125 g/ha, Postemergence section (flood test species)
[25] = Rate 250 g/ha, Postemergence (so in the source)

Question: Which results are given for Cc1cnc(-c2ccc(C#N)cc2)nc1Cc1cccc(C#N)c1 [Compound 36]?
Answer: Plant response rating, Ducksalad [1, 21]: 0; Plant response rating, Ducksalad [1, 22]: 0; Plant response rating, Ducksalad [1, 23]: 1; Plant response rating, Barnyardgrass [2, 21]: 0; Plant response rating, Barnyardgrass [2, 22]: 0; Plant response rating, Barnyardgrass [2, 23]: 0; Plant response rating, S. Flatsedge [3, 21]: 2; S. Flatsedge plant response rating [3, 24]: 5; Plant response rating, S. Flatsedge [3, 23]: 6; Plant response rating, Rice [4, 21]: 0; Rice plant response rating [4, 24]: 0; Plant response rating, Rice [4, 23]: 0; Plant response rating, B. signalgrass ([5]; Rate 62 g/ha, Postemergence): 1; B. signalgrass plant response rating ([5]; Rate 62 g/ha): 0; Plant response rating, B. signalgrass ([5]; Rate 125 g/ha, Postemergence): 1; B. signalgrass plant response rating ([5]; Rate 125 g/ha): 0; Plant response rating, B. signalgrass ([5]; Rate 250 g/ha, Postemergence): 1; Plant response rating, B. signalgrass ([5]; Rate 250 g/ha, Postemergence as printed in head r139 (second section for compounds 26-50)): 0; Plant response rating, Soybean ([6]; Rate 62 g/ha, Postemergence): 1; Soybean plant response rating ([6]; Rate 62 g/ha, Preemergence): 0; Soybean plant response rating ([6]; Rate 125 g/ha, Postemergence): 1; Plant response rating, Soybean ([6]; Rate 125 g/ha, Preemergence): 0; Plant response rating, Soybean ([6]; Rate 250 g/ha, Postemergence): 2; Plant response rating, Soybean [6, 25]: 1; Wild oats plant response rating ([7]; Rate 62 g/ha, Postemergence): 0; Wild oats plant response rating ([7]; Rate 62 g/ha, Preemergence): 0; Wild oats plant response rating ([7]; Rate 125 g/ha, Postemergence): 1; Plant response rating, Wild oats ([7]; Rate 125 g/ha, Preemergence): 0; Plant response rating, Wild oats ([7]; Rate 250 g/ha, Postemergence): 2; Plant response rating, Wild oats [7, 25]: 0; Plant response rating, Nutsedge ([8]; Rate 62 g/ha, Postemergence): 0; Nutsedge plant response rating ([8]; Rate 62 g/ha, Preemergence): 0; Nutsedge plant response rating ([8]; Rate 125 g/ha, Postemergence): 0; Nutsedge plant response rating ([8]; Rate 125 g/ha, Preemergence): 0; Plant response rating, Nutsedge ([8]; Rate 250 g/ha, Postemergence): 0; Plant response rating, Nutsedge [8, 25]: 0; Plant response rating, Giant foxtail ([9]; Rate 62 g/ha, Postemergence): 0; Giant foxtail plant response rating ([9]; Rate 62 g/ha, Preemergence): 0; Giant foxtail plant response rating ([9]; Rate 125 g/ha, Postemergence): 1; Giant foxtail plant response rating ([9]; Rate 125 g/ha, Preemergence): 0; Plant response rating, Giant foxtail ([9]; Rate 250 g/ha, Postemergence): 1; Plant response rating, Giant foxtail [9, 25]: 0; Plant response rating, Morningglory ([10]; Rate 62 g/ha, Postemergence): 1; Morningglory plant response rating ([10]; Rate 62 g/ha, Preemergence): 0; Morningglory plant response rating ([10]; Rate 125 g/ha, Postemergence): 2; Morningglory plant response rating ([10]; Rate 125 g/ha, Preemergence): 0; Plant response rating, Morningglory ([10]; Rate 250 g/ha, Postemergence): 2; Plant response rating, Morningglory [10, 25]: 0; Plant response rating, Redroot pigweed ([11]; Rate 62 g/ha, Postemergence): 0; Redroot pigweed plant response rating ([11]; Rate 62 g/ha, Preemergence): 0; Redroot pigweed plant response rating ([11]; Rate 125 g/ha, Postemergence): 4; Redroot pigweed plant response rating ([11]; Rate 125 g/ha, Preemergence): 0; Plant response rating, Redroot pigweed ([11]; Rate 250 g/ha, Postemergence): 8; Plant response rating, Redroot pigweed [11, 25]: 8; Plant response rating, Blackgrass ([12]; Rate 62 g/ha, Postemergence): 0; Blackgrass plant response rating ([12]; Rate 62 g/ha): 0; Plant response rating, Blackgrass ([12]; Rate 125 g/ha, Postemergence): 0; Blackgrass plant response rating ([12]; Rate 125 g/ha): 0; Plant response rating, Blackgrass ([12]; Rate 250 g/ha, Postemergence): 2; Plant response rating, Blackgrass [12, 25]: 1; Plant response rating, Sugarbeets ([13]; Rate 62 g/ha, Postemergence): 8; Sugarbeets plant response rating ([13]; Rate 62 g/ha, Preemergence): 0; Sugarbeets plant response rating ([13]; Rate 125 g/ha, Postemergence): 8; Plant response rating, Sugarbeets ([13]; Rate 125 g/ha, Preemergence): 0; Plant response rating, Sugarbeets ([13]; Rate 250 g/ha, Postemergence): 9; Plant response rating, Sugarbeets [13, 25]: 2; Plant response rating, Crabgrass ([14]; Rate 62 g/ha, Postemergence): 0; Crabgrass plant response rating ([14]; Rate 62 g/ha): 0; Plant response rating, Crabgrass ([14]; Rate 125 g/ha, Postemergence): 1; Crabgrass plant response rating ([14]; Rate 125 g/ha): 0; Plant response rating, Crabgrass ([14]; Rate 250 g/ha, Postemergence): 1; Plant response rating, Crabgrass [14, 25]: 0; Plant response rating, Rape ([15]; Rate 62 g/ha, Postemergence): 4; Rape plant response rating ([15]; Rate 62 g/ha, Preemergence): 0; Rape plant response rating ([15]; Rate 125 g/ha, Postemergence): 5; Rape plant response rating ([15]; Rate 125 g/ha, Preemergence): 0; Plant response rating, Rape ([15]; Rate 250 g/ha, Postemergence): 5; Plant response rating, Rape [15, 25]: 1; Plant response rating, Cocklebur ([16]; Rate 62 g/ha, Postemergence): 1; Cocklebur plant response rating ([16]; Rate 62 g/ha): 0; Plant response rating, Cocklebur ([16]; Rate 125 g/ha, Postemergence): 2; Cocklebur plant response rating ([16]; Rate 125 g/ha): 0; Plant response rating, Cocklebur ([16]; Rate 250 g/ha, Postemergence): 3; Plant response rating, Cocklebur [16, 25]: 0; Plant response rating, Corn ([17]; Rate 62 g/ha, Postemergence): 1; Corn plant response rating ([17]; Rate 62 g/ha): 0; Plant response rating, Corn ([17]; Rate 125 g/ha, Postemergence): 1; Corn plant response rating ([17]; Rate 125 g/ha): 0; Plant response rating, Corn ([17]; Rate 250 g/ha, Postemergence): 1; Plant response rating, Corn [17, 25]: 0; Plant response rating, Bedstraw ([18]; Rate 62 g/ha, Postemergence): 6; Bedstraw plant response rating ([18]; Rate 62 g/ha): 0; Plant response rating, Bedstraw ([18]; Rate 125 g/ha, Postemergence): 7; Bedstraw plant response rating ([18]; Rate 125 g/ha): 0; Plant response rating, Bedstraw ([18]; Rate 250 g/ha, Postemergence): 7; Plant response rating, Bedstraw [18, 25]: 0; Wheat plant response rating ([19]; Rate 62 g/ha, Postemergence): 0; Wheat plant response rating ([19]; Rate 62 g/ha, Preemergence): 0; Wheat plant response rating ([19]; Rate 125 g/ha, Postemergence): 1; Plant response rating, Wheat ([19]; Rate 125 g/ha, Preemergence): 0; Plant response rating, Wheat ([19]; Rate 250 g/ha, Postemergence): 2; Plant response rating, Wheat [19, 25]: 0; Plant response rating, Velvetleaf ([20]; Rate 62 g/ha, Postemergence): 1; Velvetleaf plant response rating ([20]; Rate 62 g/ha, Preemergence): 0; Velvetleaf plant response rating ([20]; Rate 125 g/ha, Postemergence): 1; Plant response rating, Velvetleaf ([20]; Rate 125 g/ha, Preemergence): 0; Plant response rating, Velvetleaf ([20]; Rate 250 g/ha, Postemergence): 1; Plant response rating, Velvetleaf [20, 25]: 1
